{"source": "patent US9220705B2", "about": "“Method of treating colorectal cancer” (priority 2013, dated 2015)", "key": {"[1]": {"tested_on": "LoVo colorectal adenocarcinoma xenografts", "assay": "In vivo anticancer activity, oxaliplatin-sensitive colorectal xenograft", "design": "species or system BALB/c nu/nu mice", "conditions": "LoVo xenograft; daily ip day 14 to day 30; 1 at 3 mg/kg, OXP at 2 mg/kg; tumor volume at day 30", "protocol": "LoVo and LoVo-OXP tumor xenografts were established in 6-week-old BALB/c nu/nu mice by injecting 1×10^7 tumor cells subcutaneously (100 μL in serum free medium) on the left dorsal flank. After 24 h from tumor implantation, mice were randomly divided into five groups (6 animals per group, 8 controls). Chemotherapy was delayed until the tumor became palpable (day 14). From day 14, 1 was dosed daily at 3 mg/kg ip whereas OXP was dosed daily at 2 mg/kg ip. Measurements of body weights and tumor volumes were recorded every 2 days until the experimental endpoint. The long axis (L) and the short axis (S) were measured with caliper, and the tumor volume (V) was calculated using the following equation: V=S×S×L/2. At day 30, animals were sacrificed, and the inhibition of tumor growth was determined by comparing the volume of the control group and the treatment group expressed as % referred to the control animals.\nAll the values are the means±S.D. of not less than three measurements. Multiple comparisons were made by Tukey-Kramer test (**p<0.01; *p<0.05)."}, "[2]": {"tested_on": "LoVo-OXP cells", "assay": "Cellular platinum uptake by GF-AAS", "format": "cell-based, human", "conditions": "LoVo-OXP resistant cells, 5 μM, 6, 24, 48 h, FIG. 2 panel B, compared with LoVo", "protocol": "LoVo and LoVo-OXP cells (2×10^6) were seeded in 75 cm^2 flasks in growth medium (20 ml). After 24 h, the medium was replaced and the cells incubated for different times (6, 24 or 48 h) in the presence of the tested complexes. Cell monolayers were washed twice with cold PBS and harvested. Samples were subjected to three freezing/thawing cycles at −80° C., and then vigorously vortexed. Aliquots were removed for the determination of protein content by the BioRad protein assay (BioRad). The samples were treated with 1 mL of highly pure nitric acid (Pt: ≦0.01 μg×kg^−1, TraceSELECT® Ultra, Sigma Chemical Co.) and transferred into a microwave teflon vessel. Subsequently, samples were submitted to a standard procedure using a speed wave MWS-3 Berghof instrument (Eningen, Germany). After cooling, each mineralized sample was analyzed for platinum by using a Varian AA Duo graphite furnace atomic absorption spectrometer (Varian, Palo Alto, Calif.; USA) at the wavelength of […]. The calibration curve was obtained using known concentrations of standard solutions purchased from Sigma Chemical Co.\nIt is well-known that cellular uptake is an important factor influencing drug efficacy. […] The intracellular platinum was quantified by means of GF-AAS analysis and the results, expressed as μg metal mg^−1 of cellular proteins, are summarized in FIG. 2."}, "[3]": {"tested_on": "C13* cisplatin resistant ovarian cancer cells", "assay": "MTT cytotoxicity assay, cross-resistance profile", "format": "cell-based, human", "conditions": "for R.F. (resistance factor): IC50 C13* / IC50 2008, cross-resistance with cisplatin", "text": "(§1) Human breast (MCF-7) and colon (HCT-15, DDL1, SW480 and CaCo-2) carcinoma cell lines along with melanoma (A375) were obtained from the American Type Culture Collection (ATCC, Rockville, Md.). A431 are human cervical carcinoma cells kindly provided by Prof. F. Zunino (Molecular Pharmacology Unit, Experimental Oncology and Molecular Medicine, Istituto Nazionale dei Tumori, Milan, Italy). […] G. Marverti (Dept. of Biomedical Science, University of Modena, Italy). LoVo human colon-carcinoma cell line and its multidrug-resistant sublime (LoVo MDR) were kindly provided by Prof F. Maj one (Department of Biology of Padova University, Italy). […] Cell lines were maintained in the logarithmic phase at 37° C. in a 5% carbon dioxide atmosphere using the following culture media containing 10% fetal calf serum (Euroclone, Milan, Italy), antibiotics (50 units mL^−1 penicillin and 50 μg mL^−1 streptomycin), and 2 mM L-glutamine in: i) RPMI-1640 medium (Euroclone) for MCF-7, HCT-15, A431, DLD 1, 2008, and C13* cells; ii) F-12 HAM'S (Sigma Chemical Co.) for LoVo, LoVo MDR, and LoVo-OXP cells; iii) DMEM for A375 and SW 480 cells; and iv) MEM for CaCo-2 cells.\n(§2) The growth inhibitory effect towards tumor cell lines was evaluated by means of the MTT (3-(4,5-dimethylthiazol-2-yl)-2,5-diphenyltetrazolium bromide) assay (Alley, M. C., et al., Cancer Res. 1988, 48, 589-601).\n(§3) Briefly, depending upon the growth characteristics of the cell line, 3-8×10^3 cells well^−1, were seeded in 96-well microplates in growth medium (100 μL) and then incubated at 37° C. in a 5% carbon dioxide atmosphere. After 24 h, the medium was removed and replaced with a fresh one containing the compound to be studied, at the appropriate concentration, dissolved in 0.9% sodium chloride solution just before use. Triplicate cultures were established for each treatment. After 72 h, each well was treated with […] of a 5 mg mL^−1 MTT saline solution and, after 5 h of incubation, 100 μL of a sodium dodecylsulfate (SDS) solution in 0.01 M HCl were added. After an overnight incubation, the inhibition of cell growth induced by the tested complexes was determined by measuring the absorbance of each well at 570 nm using a BioRad 680 microplate reader. Mean absorbance for each drug dose was expressed as percentage of the control and plotted vs. drug concentration. Dose-response curves were fitted and IC50 values were calculated with four parameter logistic model (4PL).\n(§4) A LoVo cell line retaining a multidrug resistance phenotype was also considered (LoVo MDR). Cross-resistance profiles were evaluated by means of the resistance factor (RF), which is defined as the ratio between the IC50 value for the resistant cells and that arising from the sensitive cells (Table 2)."}, "[4]": {"tested_on": "LoVo-OXP oxaliplatin resistant colon cancer cells", "assay": "MTT cytotoxicity assay, cross-resistance profile", "format": "cell-based, human", "conditions": "for R.F. (resistance factor): IC50 LoVo-OXP / IC50 LoVo, cross-resistance with oxaliplatin", "text": "as §1, §2, §3, §4"}, "[5]": {"tested_on": "2008 ovarian cancer cells", "assay": "MTT cytotoxicity assay, cross-resistance profile", "format": "cell-based, human", "conditions": "72 h", "text": "as §1, §2, §3, §4"}}, "note": "Entries after “also recorded” stand apart in the source; their conditions may differ.", "data": [{"molecule": "O=C1[O][Pt-2]2([NH2+]C3CCCC[C@H]3[NH2+]2)[O]C1=O", "note": "(stereo partly drawn) [oxaliplatin, [(1R,2R)-cyclohexane-1,2diamine](ethanedioato)platinum(II), reference compound]", "values": [{"measurement": "tumor growth inhibition", "setting": "[1]", "result": 54, "unit": "%"}, {"measurement": "intracellular platinum accumulation", "setting": "[2]", "result": "remarkably decreased; also recorded: decreases remarkably"}, {"measurement": "IC50", "setting": "[3]; C13*, 72 h, MTT", "result": "3.33 ± 1.84", "unit": "µM"}, {"measurement": "R.F. (resistance factor)", "setting": "[3]", "result": 2.0}, {"measurement": "R.F. (resistance factor)", "setting": "[3]; listed as OXP", "result": 2}, {"measurement": "R.F. (resistance factor)", "setting": "[4]", "result": 17}, {"measurement": "R.F. (resistance factor)", "setting": "[4]; listed as OXP", "result": 17}, {"measurement": "IC50", "setting": "[4]; LoVo-OXP, 72 h, MTT", "result": "17.5 ± 1.79", "unit": "µM"}, {"measurement": "IC50", "setting": "[5]", "result": "1.65 ± 1.01", "unit": "µM"}]}]}
